# In patent US8119841B2 (Novartis AG, priority 2006, dated 2012):
# Key:
# [1] = equilibration in solvents, solid investigated by XRPD; format: physicochemical; set-up: key to XRPD after equilibration: +: change detected; −: no change detected; //: not carried out as substance too soluble; conditions: for XRPD after equilibration: 25 degree Celsius; for change of the form: in cyclohexane or n-heptane
# Procedure: Between 200 mg to 700 mg of drug substance are equilibrated with 0.5 to 1 ml of solvent for at least 24 h in a water bath at the determined temperature +/−0.1° C. After equilibration, the solutions are filtered. The solid part is investigated by XRPD (X-ray Powder Diffraction).
# [2] = heat of dissolution in water; format: physicochemical; conditions: about 100 mg in 100 ml of water, 25° C.; mean of three determinations
# Procedure: About 100 mg of material is placed in a sealed glass ampoule. After equilibration at 25° C., the ampoule is broken in 100 ml of water.
# [3] = XRPD at various relative humidities; format: physicochemical
# Procedure: (§1) The aim is to evaluate the influence of the storage condition on the crystalline form of SPP100 hemifumarate For this purpose, two different experiments have been performed. The first one consists to submit SPP100 hemifumarate modification A to a nitrogen flow and to record at various time the corresponding XRPD pattern. During the second experiment the influence of relative humidity on the crystalline modification A is determined by XRPD measurement.
# [4] = XRPD during storage under nitrogen flow; format: physicochemical
# Procedure: as §1
# [5] = dynamic vapor sorption isotherm; format: physicochemical; conditions: for reversibility of hygroscopicity: up to 60% R.H. at 25° C.
# Excerpt: B) Dynamic Vapor Sorption Isotherm of Modification A, Modification B and Amorphous Material: In the following tables 7 and 8, R.H. stands for Relative Humidity, Sorpt. for Sorption and Desorpt. for Desorption.
# [6] = system: patients with NYHA class II-IV heart failure and LVEF <35%; conditions: in vivo; cited from earlier work
# [7] = system: patients with mild to moderate hypertension; conditions: aliskiren 75 mg to 300 mg; 4 weeks duration; cited from earlier work
# [8] = system: severely sodium-depleted marmoset monkeys; conditions: orally or intravenously; cited from earlier work
# [9] = amorphous material kept under organic solvent vapor, XRPD; format: physicochemical; set-up: key: +: change detected; −: no change detected; //: not carried out as substance too soluble; conditions: room temperature, at least one week
# Procedure: For example, about 100 mg of amorphous material are placed under organic solvent vapor for at least one week at room temperature. The solid material is investigated by XRPD (X-ray powder diffraction), and the following results are obtained: […]
# [10] = stability of solvate single crystals to air and humidity; format: physicochemical
# Procedure: Characterisation: Structurally, solvate forms SC and SD are characterized by single crystal X-ray diffraction. The single crystals are grown using heptane as antisolvent. The isopropanol and the ethanol solvate of SPP100 hemifumarate can be grown as small needles from isopropanol, or ethanol solution respectively, by precipitation with heptane antisolvent. As there the data quality is better, only the ethanol solvate form obtained from ethanol/heptane (so called SD, corresponding to Form D mentioned in Example 9) is discussed in detail. But from the data the conclusion can be drawn that the isopropanol solvate (so called SC) is isostructural to the ethanol solvate (when heptane is used as antisolvent). The solvate SD stoichiometry consists of one SPP100 molecule, 1/2 fumarate group and 3 solvent molecules.
# They consist of a distinct channel structure along the crystallographic b-axis which occupies about 25% of the whole crystal structure volume. […] Hydrogen bonds can be found between SPP100 (hydroxyl group and protonated amine group of SPP100) and the fumarate group and between SPP100 molecules (protonated amine group and oxygen). Another H-bond exists between ethanol and SPP100 (oxygen and amine group). Dominating propagation vector of the H-bonds is the crystallographic b-axis. […]
smiles,measurement,setting,value
"COCCCOc1cc(C[C@@H](C[C@H](N)[C@@H](O)C[C@H](C(=O)NCC(C)(C)C(N)=O)C(C)C)C(C)C)ccc1OC [Modification A, aliskiren hemifumarate]",XRPD after equilibration,[1]; Acetone,+ chemical reaction
same,XRPD after equilibration,[1]; Acetonitrile,−
same,XRPD after equilibration,[1]; Cyclohexane,−
same,XRPD after equilibration,[1]; DMAc,+ Typ III
same,XRPD after equilibration,[1]; Dioxane,+ Typ III
same,XRPD after equilibration,[1]; Isopropanol,+ Mod. B
same,XRPD after equilibration,[1]; Methylethylketone,+ chemical reaction
same,XRPD after equilibration,[1]; Pentanol,+ Typ V
same,XRPD after equilibration,[1]; TBME,+ amorphous + Typ II
same,XRPD after equilibration,[1]; Tetrahydrofurane,+ Typ III
same,XRPD after equilibration,[1]; Toluol,+ amorphous
same,change of the form,[1],No change
same,XRPD after equilibration,[1]; n-heptane,−
same,"heat of dissolution, Mean",[2],-7.55 kcal/mol
same,XRPD,"[3]; 0 h, RH 0%*",Mod A
same,XRPD,"[3]; 2.55 h, RH 10%",Mod A
same,XRPD,"[3]; 5.01 h, RH 25%",Mod A
same,XRPD,"[3]; 7.4 h, RH 35%",Mod A
same,XRPD,"[3]; 9.8 h, RH 45%",Mod A
same,XRPD,"[3]; 24.23 h, RH 45%",Mod A
same,XRPD,"[3]; 26.86 h, RH 60%",Mod A
same,XRPD,"[3]; 32.51 h, RH 70%",Mod A
same,XRPD,"[3]; 47.6 h, RH 70%",Mod A
same,XRPD,"[3]; 143.9 h, RH 70%",Mod A
same,Change,[4]; 0.00 hour,none
same,XRPD,[4]; 0.00 hour,Mod A
same,Change,[4]; 2.25 hour,none
same,XRPD,[4]; 2.25 hour,Mod A
same,Change,[4]; 4.53 hour,none
same,XRPD,[4]; 4.53 hour,Mod A
same,Change,[4]; 7.80 hour,none
same,XRPD,[4]; 7.80 hour,Mod A
same,Change,[4]; 13.10 hour,none
same,XRPD,[4]; 13.10 hour,Mod A
same,Change,[4]; 14.75 hour,none
same,XRPD,[4]; 14.75 hour,Mod A
same,hygroscopic behavior,[5],strong hygroscopic behavior
same,Sorpt. wt % 1st,[5]; R.H. 0 %,0.00 wt %
same,reversibility of hygroscopicity,[5],reversible
"COCCCOc1cc(C[C@@H](C[C@H](N)[C@@H](O)C[C@H](C(=O)NCC(C)(C)C(N)=O)C(C)C)C(C)C)ccc1OC [aliskiren, 2(S),4(S),5(S),7(S)-N-(3-amino-2,2-dimethyl-3-oxopropyl)-2,7-di(1-methylethyl)4-hydroxy-5-amino-8-[4-methoxy-3-(3-methoxy-propoxy)phenyl]-octanamide]",PRA,[6],inhibited
same,angiotensin II levels,[6],Trends towards reduced
same,blood pressure,[7],Dose dependent decreases
same,mean arterial pressure,[8],sustained reductions
same,plasma concentrations of active and total renin,[8],significant increases
same,plasma renin activity,[8],complete inhibition
CCOC(=O)[C@H](CCc1ccccc1)N[C@@H](C)C(=O)N1[C@H](C(=O)O)C[C@@H]2CCC[C@@H]21 [ramipril],PRA,[6],increased
same,angiotensin II levels,[6],Trends towards reduced
same,effects on hormonal parameters,[6],No deleterious effects
"COCCCOc1cc(C[C@@H](C[C@H](N)[C@@H](O)C[C@H](C(=O)NCC(C)(C)C(N)=O)C(C)C)C(C)C)ccc1OC [Modification B, aliskiren hemifumarate]",change of the form,[1],No change
same,"heat of dissolution, Mean",[2],-5.88 kcal/mol
same,hygroscopic behavior,[5],strong hygroscopic behavior
same,hygroscopicity compared among the 3 modifications,[5],least hygroscopic form
same,Desorpt wt % 2nd,[5]; R.H. 0 %,0.04 wt %
same,Sorpt. wt % 1st,[5]; R.H. 0 %,0.00 wt %
same,Desorpt wt % 2nd,[5]; R.H. 10 %,2.33 wt %
same,Sorpt. wt % 1st,[5]; R.H. 10 %,0.94 wt %
same,Desorpt wt % 2nd,[5]; R.H. 20 %,3.17 wt %
same,Sorpt. wt % 1st,[5]; R.H. 20 %,1.69 wt %
same,Desorpt wt % 2nd,[5]; R.H. 30 %,3.76 wt %
same,Sorpt. wt % 1st,[5]; R.H. 30 %,2.53 wt %
same,Desorpt wt % 2nd,[5]; R.H. 40 %,4.47 wt %
same,Sorpt. wt % 1st,[5]; R.H. 40 %,3.68 wt %
same,Desorpt wt % 2nd,[5]; R.H. 50 %,5.65 wt %
same,Sorpt. wt % 1st,[5]; R.H. 50 %,5.52 wt %
same,Desorpt wt % 2nd,[5]; R.H. 60 %,7.68 wt %
same,Sorpt. wt % 1st,[5]; R.H. 60 %,7.68 wt %
same,reversibility of hygroscopicity,[5],reversible
"COCCCOc1cc(C[C@@H](C[C@H](N)[C@@H](O)C[C@H](C(=O)NCC(C)(C)C(N)=O)C(C)C)C(C)C)ccc1OC [Amorphous, aliskiren hemifumarate]",Modification obtained by XRPD,[9]; 1-hexanol vapor,+ Typ V
same,Modification obtained by XRPD,[9]; 2-propanol vapor,+ Typ V
same,Modification obtained by XRPD,[9]; Acetonitrile vapor,+ Typ. IV
same,Modification obtained by XRPD,[9]; Dimethylformamide vapor,Mainly amorphous
same,Modification obtained by XRPD,[9]; Ethanol vapor,Amorphous + Typ. V
same,Modification obtained by XRPD,[9]; Ethyl acetate vapor,+ amorphous + small amount of Typ. III
same,Modification obtained by XRPD,[9]; Methyl acetate vapor,+ Typ I
same,Modification obtained by XRPD,[9]; TBME vapor,−
same,Modification obtained by XRPD,[9]; Tetrahydrofurane vapor,+ Typ III
same,Modification obtained by XRPD,[9]; Toluene vapor,−
same,Modification obtained by XRPD,[9]; n-butanol vapor,+ Typ. V
same,change of the form,[1],No change
same,hygroscopic behavior,[5],strong hygroscopic behavior
same,reversibility of hygroscopicity,[5],reversible
"COCCCOc1cc(C[C@@H](C[C@H](N)[C@@H](O)C[C@H](C(=O)NCC(C)(C)C(N)=O)C(C)C)C(C)C)ccc1OC [SC, aliskiren hemifumarate]",stability of the structure to air and humidity,[10],very sensible to air and humidity and decompose rapidly
